Data: patent publication US20240287138A1, “CYCLIC PEPTIDES FOR INHIBITING TNF RECEPTOR 1 ACTIVITY” (Merck Sharp & Dohme LLC, priority 2023, published 2024)
Numbered stars: 1 amine (or outer) side, 2 acyl side, 3 side chain; on linkers, the order of the positions; unused ones are H or OH. Bridge positions count the residues as written; N and C are the ends. Square brackets hold non-standard residues; d marks the D form. Peptide text beside a SMILES is read from it. Trp(βS-Me,7-OMe) = COc1cccc2c([C@H](C)[C@H](N)C(=O)O)c[nH]c12; cBu(1-CO,cis-3-CH2NH) = O=C([C@H]1C[C@@H](CN[*:1])C1)[*:2]; Trp(7-Cl) = N[C@@H](Cc1c[nH]c2c(Cl)cccc12)C(=O)O; Phe(4-CONH2) = NC(=O)c1ccc(C[C@H](N)C(=O)O)cc1; Phe(4-COOH) = N[C@@H](Cc1ccc(C(=O)O)cc1)C(=O)O; Trp(7-F) = N[C@@H](Cc1c[nH]c2c(F)cccc12)C(=O)O; X2 = C[C@@H]1CC[C@@H](C(=O)[*:2])N([*:1])C1; Pip(5R-OH) = O=C(O)[C@@H]1CC[C@@H](O)CN1; X13 = O=C([C@H]1CC[C@@H](N[*:1])C1)[*:2]; X1 = O=C([C@@H]1CC[C@H](N[*:1])C1)[*:2]; dPro(4,4-F2) = O=C(O)[C@H]1CC(F)(F)CN1; Pip(4-aza) = O=C(O)[C@@H]1CNCCN1; hPhe = N[C@@H](CCc1ccccc1)C(=O)O; 4Pal = N[C@@H](Cc1ccncc1)C(=O)O; NMeE = CN[C@@H](CCC(=O)O)C(=O)O; αMeS = C[C@](N)(CO)C(=O)O; NMeA = CN[C@@H](C)C(=O)O; Nle = CCCC[C@H](N)C(=O)O; Sar = CNCC(=O)O

Columns and labels:
[1] = target: T1, human TNFR1 extracellular domain (ECD) protein (Homo sapiens, UniProt P19438); assay: SPR binding affinity to captured human TNFR1 ECD
T1 construct: HRV 3C protease cleavage site (C); 6His (C, cleaved yes); made in house; host or cells: Sf21 insect cells (baculovirus), secreted
T1 sequence (P19438 30-211): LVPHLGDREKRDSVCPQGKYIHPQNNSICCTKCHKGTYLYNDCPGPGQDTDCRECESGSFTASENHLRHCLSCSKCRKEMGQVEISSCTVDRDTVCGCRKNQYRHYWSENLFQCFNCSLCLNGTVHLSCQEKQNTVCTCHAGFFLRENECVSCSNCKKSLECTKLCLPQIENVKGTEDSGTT
Summary of the method: (§1)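 Peptide binding kinetics read by SPR in HEPES pH 7.4 running buffer with 2% DMSO, with TNFR2 ECD tested in parallel for off-target binding. Receptor ECDs, insect-cell expressed and biotinylated at C-terminal avi-tag, were captured via streptavidin. KA derived from association and dissociation rate constants.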

human TNFR2 ECD protein = target: T2, human TNFR2 ECD protein (Homo sapiens, UniProt P20333); assay: SPR off-target binding (selectivity) to human TNFR2 ECD
T2 construct: HRV 3C protease cleavage site (C); 6His (C, cleaved yes); made in house; host or cells: Sf21 insect cells (baculovirus), secreted
T2 sequence (P20333 23-257): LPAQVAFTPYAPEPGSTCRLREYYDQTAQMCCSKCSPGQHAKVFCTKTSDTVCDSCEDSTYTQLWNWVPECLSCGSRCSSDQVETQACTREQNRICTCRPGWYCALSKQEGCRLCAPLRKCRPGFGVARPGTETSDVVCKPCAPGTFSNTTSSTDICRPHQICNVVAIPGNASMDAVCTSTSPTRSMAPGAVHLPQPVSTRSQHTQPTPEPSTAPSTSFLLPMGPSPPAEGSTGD
Summary of the method: as §1

[2] = target: T3, human soluble TNFR1 (sTNFR1) (Homo sapiens, UniProt P19438); assay: Human sTNFR1-peptide displacement assay (LanthaScreen Eu TR-FRET binding assay)
T3 construct: made in house; host or cells: Sf21 (baculovirus)
T3 sequence (P19438 with tags, fused parts or gaps): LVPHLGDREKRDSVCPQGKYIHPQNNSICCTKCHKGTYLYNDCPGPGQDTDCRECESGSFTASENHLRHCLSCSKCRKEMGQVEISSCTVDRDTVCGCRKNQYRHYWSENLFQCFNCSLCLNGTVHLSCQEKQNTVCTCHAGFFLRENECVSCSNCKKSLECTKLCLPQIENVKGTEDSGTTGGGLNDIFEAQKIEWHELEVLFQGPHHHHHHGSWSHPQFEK
Summary of the method: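 Readout is the 665/615 nm TR-FRET ratio (Eu anti-His donor, streptavidin-Alexa647 acceptor), normalized to DMSO and saturating displacer, fit by Morrison-based five-parameter logistic for Kd^app. His-tagged sTNFR1 (1-211) prebound to 100 nM biotinylated peptide SEQ ID NO.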

SMILES | Kd [1] [nM] | Kd (human TNFR2 ECD protein) [nM] | IC50 [2] [nM] | Kd [2] [nM]
C[C@H]1C(=O)N[C@@H](CC(N)=O)C(=O)N[C@@H](Cc2ccncc2)C(=O)N[C@@H](Cc2c[nH]c3ccccc23)C(=O)N[C@@](C)(CO)C(=O)N[C@@H](Cc2ccc(C(=O)O)cc2)C(=O)N[C@@H](Cc2ccc(O)cc2)C(=O)N(C)CC(=O)N[C@@H](Cc2c[nH]c3ccccc23)C(=O)N[C@H](C(N)=O)CSCC(=O)N[C@@H](CCc2ccccc2)C(=O)N[C@@H](Cc2ccc(O)cc2)C(=O)N[C@@H](CO)C(=O)N[C@@H](Cc2c[nH]c3c(F)cccc23)C(=O)N1C [SEQ ID NO. 263] ({CH2CO}-[hPhe]YS[Trp(7-F)][NMeA]N[4Pal]W[αMeS][Phe(4-COOH)]Y[Sar]WC-NH2; thioether N-14) | 1.6 | > 1000 | 2.88 | 
CCCC[C@@H]1NC(=O)[C@@H]2CC[C@@H](C2)NC(=O)[C@H]([C@@H](C)c2c[nH]c3c(OC)cccc23)NC(=O)CN(C)C(=O)[C@H](Cc2ccc(O)cc2)NC(=O)[C@H](Cc2ccc(C(=O)O)cc2)NC(=O)[C@](C)(CO)NC(=O)[C@H](Cc2c[nH]c3c(Cl)cccc23)NC(=O)[C@H](Cc2ccncc2)NC(=O)[C@H](CC(N)=O)NC(=O)[C@H]2CC(F)(F)CN2C(=O)[C@H](Cc2c[nH]c3ccccc23)NC(=O)[C@@H]2CNCCN2C(=O)[C@H](Cc2ccncc2)NC1=O [SEQ ID NO. 266] (cyclo([4Pal][Trp(7-Cl)][αMeS][Phe(4-COOH)]Y[Sar][Trp(βS-Me,7-OMe)][X1][Nle][4Pal][Pip(4-aza)]W[dPro(4,4-F2)]N)) | 0.06 | > 1000 |  | 0.45
CCCC[C@@H]1NC(=O)[C@H]2CC[C@H](C2)NC(=O)[C@H]([C@@H](C)c2c[nH]c3c(OC)cccc23)NC(=O)CN(C)C(=O)[C@H](Cc2ccc(O)cc2)NC(=O)[C@H](Cc2ccc(C(N)=O)cc2)NC(=O)[C@](C)(CO)NC(=O)[C@H](Cc2c[nH]c3c(Cl)cccc23)NC(=O)[C@H](Cc2ccc(C(=O)O)cc2)NC(=O)[C@H](CC(N)=O)NC(=O)[C@H](CCC(=O)O)N(C)C(=O)[C@H](Cc2c[nH]c3ccccc23)NC(=O)[C@@H]2CC[C@@H](O)CN2C(=O)[C@H](Cc2ccncc2)NC1=O [SEQ ID NO. 267] (cyclo([4Pal][Pip(5R-OH)]W[NMeE]N[Phe(4-COOH)][Trp(7-Cl)][αMeS][Phe(4-CONH2)]Y[Sar][Trp(βS-Me,7-OMe)][X13][Nle])) | 0.14 | > 1000 |  | 0.29
CCCC[C@@H]1NC(=O)[C@H]2C[C@@H](CNC(=O)[C@H]([C@@H](C)c3c[nH]c4c(OC)cccc34)NC(=O)CN(C)C(=O)[C@H](Cc3ccc(O)cc3)NC(=O)[C@H](Cc3ccc(C(=O)O)cc3)NC(=O)[C@](C)(CO)NC(=O)[C@H](Cc3c[nH]c4c(Cl)cccc34)NC(=O)[C@H](Cc3ccncc3)NC(=O)[C@H](CC(N)=O)NC(=O)[C@H](CCC(=O)O)N(C)C(=O)[C@H](Cc3c[nH]c4ccccc34)NC(=O)[C@@H]3CNCCN3C(=O)[C@H](Cc3ccncc3)NC1=O)C2 [SEQ ID NO. 268] (cyclo([4Pal][Trp(7-Cl)][αMeS][Phe(4-COOH)]Y[Sar][Trp(βS-Me,7-OMe)][cBu(1-CO,cis-3-CH2NH)][Nle][4Pal][Pip(4-aza)]W[NMeE]N)) | 0.27 | > 1000 | 0.77 | 0.45
CCCC[C@@H]1NC(=O)CSC[C@@H](C(N)=O)NC(=O)[C@H]([C@@H](C)c2c[nH]c3c(OC)cccc23)NC(=O)CN(C)C(=O)[C@H](Cc2ccc(O)cc2)NC(=O)[C@H](Cc2ccc(C(=O)O)cc2)NC(=O)[C@](C)(CO)NC(=O)[C@H](Cc2c[nH]c3c(Cl)cccc23)NC(=O)[C@H](Cc2ccncc2)NC(=O)[C@H](CC(N)=O)NC(=O)[C@H](CCC(=O)O)N(C)C(=O)[C@H](Cc2c[nH]c3ccccc23)NC(=O)[C@@H]2CC[C@@H](C)CN2C(=O)[C@H](Cc2ccncc2)NC1=O [SEQ ID NO. 272] ({CH2CO}-[Nle][4Pal][X2]W[NMeE]N[4Pal][Trp(7-Cl)][αMeS][Phe(4-COOH)]Y[Sar][Trp(βS-Me,7-OMe)]C-NH2; thioether N-14) | 0.1 | > 1000 | 0.3 | 0.21
